Earlier results in US7572808B2, “Triazolopyridine cannabinoid receptor 1 antagonists” (Bristol-Myers Squibb Company, priority 2005, dated 2009).
Where two headings read alike, the source gives them in different places.

Columns and labels:
[1] = chronic administration for two weeks
[2] = human subjects, 16 week trial period, Phase IIb

| SMILES | body weight [1] | body weight [2] |
| --- | --- | --- |
| Cc1c(C(=O)NN2CCCCC2)nn(-c2ccc(Cl)cc2Cl)c1-c1ccc(I)cc1 [AM-251] | substantial body weight reduction |  |
| Cc1c(C(=O)NN2CCCCC2)nn(-c2ccc(Cl)cc2Cl)c1-c1ccc(Cl)cc1 [SR-141716] |  | dose-dependently reduced body weight |
